Patent EP0004358A1, “N-oxacyclylalkyl piperidines, process for their preparation, pharmaceutical compositions containing these compounds” (priority 1978, dated 1979)
Where a name gives a salt, the structure may show the parent alone.

Tests used:
[1] = system: anticholinergische; assay: Anticholinergic action (statement, no method)
[2] = system: antihistaminische; assay: Antihistaminic action (statement, no method)
[3] = system: präsynaptischerc(-noradrenergischer Blocker); assay: Presynaptic alpha-noradrenergic blockade (statement, no method); conditions: compared in kind with Mianserin
[4] = system: männlichen Albinoratten; assay: Conditioned shock avoidance (lever pressing) in rats; type: in vivo, Ratte; conditions: for Schockvermeidungsreaktion der Ratte: doses down to 2,5 mg/kg/Tag
Description: Die Verbindungen der Erfindung zeigen wertvolle pharmakologische, z.B. stimulierende und antidepressive Wirkungen. Diese können in Tierversuchen, vorzugsweise an Säugetieren, wie Ratten oder Affen, als Testobjekte nachgewiesen werden. Die Verbindungen der Erfindung können ihnen enteral, z.B. oral, oder parenteral, z.B. subkutan, intraperitoneal oder intravenös, z.B. in Form von wässerigen Lösungen oder Stärke enthaltenden Suspensionen, verabreicht werden. Die verwendete Dosis kann in einem Bereich von ungefähr zwischen 0,1 und 100 mg/kg/Tag, vorzugsweise ungefähr 1 und 50 mg/kg/Tag, insbesondere ungefähr 5 und 25 mg/kg/Tag liegen. Die genannten stimulierenden und antidepressiven Wirkungen können z.B. an männlichen Albinoratten beobachtet werden. Die Tiere haben freien Zugang zu Futter und Wasser, mit Ausnahme der Versuchsdauer. Die Untersuchung des Tierverhaltens wird in normierten, schallisolierten Konditionierungskammern, welche einen Schalthebel enthalten, durchgeführt. Gemäss dem Test werden die Ratten durch das Bodengitter der Kammer elektrischen Schocks ausgesetzt. Der Hebel ist an eine programmierte Einrichtung, welche die Abgabe von elektrischen Schocks reguliert, angeschlossen. Die Anzahl der Betätigung des Hebels und die Anzahl der erlittenen Schocks werden registriert. Die Ratten werden vorher dazu trainiert, diesem elektrischen Impuls durch Drücken der Taste auszuweichen. Dann wird der Apparat so eingestellt, dass jede Hebelbetätigung den Schockeintritt um 30 Sekunden verschiebt. Vergisst das Tier den Hebel innerhalb dieses Zeitintervalls zu drücken, so werden alle 15 Sekunden kurze elektrische Schocks abgegeben, bis das Tier den Hebel wieder betätigt. Vor jeder Testperiode werden die Ratten, um sich zu erwärmen, 15 Minuten in den Testkammern gehalten. Während dieser Zeit wird die Anzahl der Hebelbetätigungen nicht registriert. Unmittelbar nach dieser Periode werden die Test-Verbindungen entweder in Kochsalzlösung oder in 3Xiger Maisstärke-Suspension in 5%igem wässerigem Polyäthylenglykol-400, welches auf 10 ml einen Tropfen Polyäthylen-20- sorbitanmonooleat enthält, entweder oral oder intraperitoneal vorabreicht. […] Diese erfindungsgemässe Verbindung zeigt einen einzigartigen Wirkungsmechanismus.

[5] = system: biogener Amine; assay: Uptake inhibition of biogenic amines (statement, no method)
[6] = system: Totenkopf-Aeffchen (squirrel monkeys); assay: Conditioned shock avoidance (Skinner cage) in squirrel monkeys; type: in vivo; conditions: oral in 0,9%iger wässeriger Kochsalzlösung, doses down to 2,5 mg/kg/Tag; four-hour session
Description: In einem anderen Test werden Totenkopf-Aeffchen (squirrel monkeys) durch Training dazugebracht, den Hebel in einem solchen Skinner-Käfig zu drücken, um dem elektrischen Schock, der auf die Füsse durch das Bodengitter verabreicht wird, auszuweichen. Jeder Tastendruck verschiebt den elektrischen Schock um 20 Sekunden. Versäumt der Affe innerhalb von 20 Sekunden die Taste zu drücken, so wird er kurze (0,5 Sekunden) elektrische Schocks alle 20 Sekunden bis zu seinem nächsten Tastendruck erleiden. Unter Kontrollbedingungen drücken die Affen den Hebel mit einer verhältnismässig stetigen Geschwindigkeit, so dass sie selten mehr als 6 Schocks während einer vierstündigen Versuchsperiode erhalten. Man bestimmt die Anzahl der Vermeidungsreaktionen sowie die Anzahl der erhaltenen Schocks. […] Der Wirkstoff wird in niedrigen Dosen bis hinunter zu 2,5 mg/kg/Tag verabreicht. Die Untersuchung zwecks Gewinnung von Kontrollwerten wird unter Verwendung von Kochsalzlösung allein, ein Tag vor der Untersuchung der Wirkstoffe, durchgeführt.

Compound	anticholinergische Wirkung [1]	antihistaminische Wirkung [2]	präsynaptischerc(-noradrenergischer Blocker) [3]	Zunahme der Schockvermeidungsreaktion, comparison with Methylphenidat ([4]; compared with 5 mg/kg/Tag Methylphenidat intraperitoneal)	Schockvermeidungsreaktion der Ratte ([4]; intraperitoneal)	Aufnahmehemmer biogener Amine [5]	Anzahl der erlittenen Schocks [6]	Ausmass der Vermeidungsreaktionen [6]	Zunahme der Schockvermeidungsreaktion ([4]; 5 mg/kg/Tag, intraperitoneal)
O=C1NCCN1C1CCN(CCC2COc3ccccc3O2)CC1 (racemic) [1-[1-[2-(1,4-Benzodioxan-2-yl)-äthyl]-4-piperidyl]-2-imidazolidinon]	weder eine anticholinergische	noch eine antihistaminische Wirkung	kein präsynaptischerc(-noradrenergischer Blocker	vorteilhaft	erhöht signifikant	kein Aufnahmehemmer biogener Amine	–	–	–
O=C1NCCN1C1CCN(CC[C@H]2COc3ccccc3O2)CC1 [1-(S)-Hydrobromid]	–	–	–	–	erhöht signifikant	–	positive Aenderungen	positive Aenderungen	–
COC(=O)C(c1ccccc1)C1CCCCN1 (stereo not shown) [Methylphenidat, reference compound]	–	–	–	–	–	–	–	–	Zunahme der Schockvermeidungsreaktion
